Assay results as given in article PMC5770468, “Cardiac glycoside/aglycones inhibit HIV-1 gene expression by a mechanism requiring MEK1/2-ERK1/2 signaling” (Scientific Reports, 2018).

Columns and labels:
[1] = system: SRp20/SRSF3; assay: Immunoblot of SRp20 in HeLa rtTA-HIV-ΔMls cells; assay type: cell-based, human; conditions: 3 d with ~IC50s of CSs
From the text: Figure 4 CSs suppress HIV-1 gene expression by altering viral RNA processing. […] (a,b) CSs induce oversplicing of HIV-1 RNAs (n ≥ 3, mean, s.e.m.). (a) Diagram of the primer positions (arrow heads) used for qRT-PCR. (b) Graph of the relative amount of US (black), SS (white), and MS (gray) HIV-1 RNAs in cells treated with various CSs. (c) Nuclear export of HIV-1 US RNAs in cells is altered by CSs (representative n ≥ 4). HIV-1 US RNAs were localized by FISH after treating HeLa rtTA-HIV(Gag-GFP) cells as described above but with ~IC90s of CSs. Nuclei were stained by DAPI and images captured at 630 × magnification. […] SRp20, Tra2β, and tubulin were analyzed by immunoblot of HeLa rtTA-HIV-ΔMls cells treated as described above except cells of this representative blot were treated 3 d with ~IC50s of CSs. […]
To monitor HIV-1 gene expression or replication, Gag release into cell culture supernatants were assayed by ELISA using a p24^CA antigen capture assay kit (AIDS & Cancer Virus Program, NCI-Frederick, Frederick, MD USA). […] For analysis of HIV-1 and SR protein expression (and phosphorylation states with calf intestinal alkaline phosphatase treatments), cells were lysed and analyzed by western blot as previously outlined. […] Activation of MAPKs was determined by western blot quantitation and calculation of phospho/total protein levels. […]

[2] = system: HIV-1 gene expression; assay: HIV-1 gene expression in CD4+ T-cell line 24ST1NLESG, p24CA ELISA; assay type: cell-based, HIV-1 (pNL4-3); conditions: PMA induced, 24 h, p24CA ELISA of supernatants
Method: Drug/compounds were tested for effects on HIV-1 gene expression using inducible Tet-ON HIV-1 cell lines [HeLa rtTA-HIV-ΔMls or rtTA-HIV(Gag-GFP)] containing a HIV-1 (LAI) provirus activatable by Dox or tetracycline transactivator (tTA)[69]. The rtTA-HIV-ΔMls provirus was modified and used as previously reported[9]–[11],[70]. The rtTA-HIV(Gag-GFP) provirus was generated by deletion of the PR and RT coding regions within pol and insertion of GFP to the 3′ of gag, creating GFP fused to the C-terminal of Gag. After 4 h of drug/compound treatment, HIV-1 gene expression was activated with Dox (2 μg/mL) or tTA (described below). Equal concentrations of DMSO were present in each experiment. After ~20 h, cells and media were harvested to monitor the effects of drug/compound treatments as described below. HIV-1 gene expression was quantified via p24^CA ELISA or monitoring Gag-GFP fluorescence in cells as described below. In parallel, cell viability of treatments were assessed by XTT assay (Sigma-Aldrich, #TOX2). […]
treatment of 24ST1NLESG cells (n ≥ 4, mean, s.e.m.). […] Cell lysates were analyzed by western blot with antibodies specific for (c) HIV-1 structural protein, Gag, and (d) viral regulatory factor, Tat. […]

Row | SMILES | mobility of SRp20 [1] | HIV-1 gene expression in 24ST1NLESG cells [2]
1 | C[C@]12CC[C@H](O)C[C@H]1CC[C@@H]1[C@@H]2CC[C@]2(C)[C@@H](C3=CC(=O)OC3)CC[C@]12O [Digitoxigenin] | increased the mobility | –
2 | C[C@H]1O[C@@H](O[C@H]2[C@@H](O)C[C@H](O[C@H]3[C@@H](O)C[C@H](O[C@H]4CC[C@@]5(C)[C@H](CC[C@@H]6[C@@H]5CC[C@]5(C)[C@@H](C7=CC(=O)OC7)CC[C@]65O)C4)O[C@@H]3C)O[C@@H]2C)C[C@H](O)[C@@H]1O [Digitoxin] | – | Dose-dependent inhibition
